Where two headings read alike, the source gives them in different places. No end group written: not given here.
Key:
Assay in all cases: biochemical
Format in all cases: binding
HLA-DR DRB1*1501 (DR15) = HLA-DR DRB1*1501 (DR15) (Homo sapiens, UniProt P01903+P01911); settings: DRBI *1501
HLA-DR DRB1*0901 (DR9) = HLA-DR DRB1*0901 (DR9) (Homo sapiens, UniProt P01903+P01911, A100R/A103E/D57H/D86V/F55Y/F60I/F76Y/I96F/K127E/L162R/M171V/P40D/Q125H/Q99R/R33Q/R42F/S133A/S66N/T210M/V115G/W38K/Y107V/Y59G/Y89S)
HLA-DR DRB1*1302 (DR13) = HLA-DR DRB1*1302 (DR13) (Homo sapiens, UniProt P01903+P01911, A100E/A169T/K41T/L162R/M171V/P40S/Q125H/Q178H/Q39Y/Q99D/R42S/S66N/T262R/V115G/W38E/Y61H); settings: DRBI *1302
HLA-DR DRB1*1302 (DR13), sequence (P01903 26-254 limits assumed, other chains not shown): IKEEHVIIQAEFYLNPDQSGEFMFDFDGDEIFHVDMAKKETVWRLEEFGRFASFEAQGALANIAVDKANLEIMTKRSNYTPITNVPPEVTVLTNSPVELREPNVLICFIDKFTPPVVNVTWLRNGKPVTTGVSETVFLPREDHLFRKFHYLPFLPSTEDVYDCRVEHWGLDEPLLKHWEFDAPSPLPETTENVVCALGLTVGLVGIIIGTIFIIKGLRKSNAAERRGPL

HLA-DR DRB1*1101 (DR11) = HLA-DR DRB1*1101 (DR11) (Homo sapiens, UniProt P01903+P01911, A100R/A169T/A87E/I96F/K41T/L162R/M171V/P40S/Q125H/Q178H/Q39Y/Q99D/R42S/S66Y/T262R/V115G/W38E); settings: DRB1 *1101
HLA-DR DRB1*1101 (DR11), sequence (P01903 26-254 limits assumed, other chains not shown): as above

HLA-DR DRB1*0701 (DR7) = HLA-DR DRB1*0701 (DR7) (Homo sapiens, UniProt P01903+P01911, A100R/A102G/A103Q/D57E/D86V/E43K/F76Y/K127E/L162R/M171V/P40G/Q125H/Q99D/R33Q/R42Y/R54Q/S133A/S66F/T210M/V115G/Y107V/Y59L/Y89S)
HLA-DR DRB1*0401 (DR4) = HLA-DR DRB1*0401 (DR4) (Homo sapiens, UniProt P01903+P01911, A100K/A169T/F76Y/I96L/K127E/L162R/M171V/N62H/P40V/Q125Y/R42H/S133A/S149N/S66Y/V115G/V209L/W38E)
HLA-DR DRB5*0101 (DR51) = HLA-DR DRB5*0101 (DR51) (Homo sapiens, UniProt P01903+Q30154); settings: DRB5 *0101
HLA-DR DRB1*0301 (DR3) = HLA-DR DRB1*0301 (DR3) (Homo sapiens, UniProt P01903+P01911, A100K/A102G/A103R/A169T/F55Y/I96L/K41T/L162R/M171V/P40S/Q125H/Q178H/Q39Y/R42S/S66N/T106N/T262R/W38E/Y61H)
HLA-DR DRB1*0301 (DR3), sequence (P01903 26-254 limits assumed, other chains not shown): as above

HLA-DR DRB1*0101 (DR1) = HLA-DR DRB1*0101 (DR1) (Homo sapiens, UniProt P01903+P01911, A100R/D57E/F55L/F60I/F76Y/I96L/L162R/M171V/P40L/Q125E/R42F/V115G/Y59C)
HLA-DR DRB4*0101 (DR53) = HLA-DR DRB4*0101 (DR53) (Homo sapiens, UniProt P01903+P13762, G164S); settings: DRB4 *0101
HLA-DR DRB1*0802 (DR8) = HLA-DR DRB1*0802 (DR8) (Homo sapiens, UniProt P01903+P01911, A100R/A103L/A169T/F76Y/H45Y/I96F/K41T/L162R/M171V/P40S/Q125H/Q178H/Q39Y/Q99D/R218S/R42G/S66Y/V115G/W38E)

Compound	IC50 (HLA-DR DRB1*1501 (DR15))	IC50 (HLA-DR DRB1*1302 (DR13))	IC50 (HLA-DR DRB1*1101 (DR11))	IC50 (HLA-DR DRB1*0701 (DR7); DRB1 *0701)	IC50 (HLA-DR DRB5*0101 (DR51))	IC50 (HLA-DR DRB1*0301 (DR3))	IC50 (HLA-DR DRB1*0101 (DR1); DRB1 *0101)	IC50 (HLA-DR DRB4*0101 (DR53))	IC50 (HLA-DR DRB1*0401 (DR4); read-out: DRB1 *0401)	IC50 (HLA-DR DRB1*0101 (DR1); read-out: DRB1 *0101)	IC50 (HLA-DR DRB1*0901 (DR9); read-out: DRB1 *0901)	further results
CC(C)C[C@H](NC(=O)[C@H](CCC(N)=O)NC(=O)[C@H](CCC(N)=O)NC(=O)[C@@H](N)Cc1ccccc1)C(=O)N[C@@H](Cc1ccccc1)C(=O)N[C@@H](CC(C)C)C(=O)N[C@@H](CC(N)=O)C(=O)N[C@H](C(=O)N[C@@H](CC(C)C)C(=O)N[C@@H](CO)C(=O)N[C@@H](Cc1ccccc1)C(=O)N[C@H](C(=O)N[C@@H](CS)C(=O)N1CCC[C@H]1C(=O)N[C@@H](Cc1c[nH]c2ccccc12)C(=O)O)C(C)C)[C@@H](C)O	24800 nM	9.3 nM	–	–	–	–	–	–	–	–	–	IC50 (HLA-DR DRB1*0901 (DR9); DRB1 *0901): 2060 nM
CC[C@H](C)[C@H](N)C(=O)N[C@@H](CCCNC(=N)N)C(=O)N[C@H](C(=O)N[C@@H](CC(C)C)C(=O)N[C@@H](CCC(N)=O)C(=O)N[C@@H](CCC(=O)O)C(=O)N[C@@H](CC(C)C)C(=O)N[C@@H](CC(C)C)C(=O)N[C@@H](CCSC)C(=O)NCC(=O)N[C@@H](CO)C(=O)N[C@@H](Cc1ccccc1)C(=O)NCC(=O)N[C@H](C(=O)N[C@H](C(=O)O)C(C)C)[C@@H](C)CC)[C@@H](C)CC	294 nM	1040 nM	7980 nM	2000 nM	> 55100 nM	31800 nM	67 nM	17 nM	–	–	–	IC50 (HLA-DR DRB1*0401 (DR4); DRB1 *0401): 724 nM; IC50 (HLA-DR DRB1*0901 (DR9); DRB1 *0901): 271 nM
CC[C@H](C)[C@H](NC(=O)[C@H](CC(C)C)NC(=O)[C@H](CCCCN)NC(=O)[C@H](CCCCN)NC(=O)[C@@H](N)Cc1ccc(O)cc1)C(=O)N[C@@H](CCSC)C(=O)N[C@@H](Cc1ccc(O)cc1)C(=O)N[C@@H](CO)C(=O)N[C@@H](C)C(=O)N[C@@H](Cc1c[nH]cn1)C(=O)N[C@@H](CC(=O)O)C(=O)N[C@H](C(=O)N[C@H](C(=O)N[C@H](C(=O)N[C@@H](CO)C(=O)O)C(C)C)[C@@H](C)O)[C@@H](C)O	15 nM	37 nM	208 nM	–	5480 nM	22700 nM	17 nM	5.8 nM	–	–	–	IC50 (HLA-DR DRB1*0901 (DR9); DRB1 *0901): 107 nM
AVGLPSTPVHPIGYY	–	–	–	–	–	–	–	–	4190 nM	3.6 nM	–	IC50 (HLA-DR DRB1*0802 (DR8); read-out: DRB1 *0802): 4430 nM
DHRQLQLSISSCLQQLSLLM	67 nM	69 nM	> 98500 nM	736 nM	63800 nM	42700 nM	1360 nM	532 nM	–	–	–	–
DIRILQELLMGSFGI	1620 nM	5800 nM	19000 nM	1590 nM	> 55100 nM	3250 nM	88 nM	16 nM	–	–	–	–
FPTIPLSRLFDNAM	–	–	–	–	–	–	–	–	9460 nM	6920 nM	15000 nM	IC50 (HLA-DR DRB1*0701 (DR7); read-out: DRB1 *0701): 5530 nM; IC50 (HLA-DR DRB1*0301 (DR3); read-out: DRB1 *0301): 46700 nM
GGVLVNEILNHMK	–	–	–	–	–	–	–	–	359 nM	–	54400 nM	IC50 (HLA-DR DRB1*0701 (DR7); read-out: DRB1 *0701): 29500 nM; IC50 (HLA-DR DRB1*0301 (DR3); read-out: DRB1 *0301): 700 nM
GYKVLVLNPSV	–	–	–	–	–	–	–	–	27 nM	16 nM	8790 nM	IC50 (HLA-DR DRB1*0301 (DR3); read-out: DRB1 *0301): 72400 nM
KCLVISQVSNSDSYK	–	236 nM	–	46400 nM	> 42600 nM	–	628 nM	81 nM	–	–	–	IC50 (HLA-DR DRB1*0802 (DR8)): 17900 nM; IC50 (HLA-DR DRB1*0401 (DR4); DRB1 *0401): 16 nM
KEYVLDLYPEPTDLY	3170 nM	> 14800 nM	> 59200 nM	> 72300 nM	> 55100 nM	–	5950 nM	–	–	–	–	IC50 (HLA-DR DRB1*0401 (DR4); DRB1 *0401): 131 nM; IC50 (HLA-DR DRB1*0901 (DR9); DRB1 *0901): > 49900 nM
KKCLNEILIRCHCQ	–	–	–	–	–	–	–	–	–	9360 nM	4000 nM	–
KKNIIALLIIPPKIIA	–	–	–	–	–	–	–	–	–	13 nM	–	IC50 (HLA-DR DRB1*0701 (DR7); read-out: DRB1 *0701): 495 nM; IC50 (HLA-DR DRB1*0802 (DR8); read-out: DRB1 *0802): 157 nM
KSNFLNCYVSGFHPSD	–	–	5000 nM	–	–	> 900000 nM	2500 nM	–	–	–	–	–
LCNFKKNIIALLIIP	–	–	–	–	–	–	–	–	312 nM	9.7 nM	–	IC50 (HLA-DR DRB1*0802 (DR8); read-out: DRB1 *0802): 21300 nM
LEDLLMGTLGIVCP	–	–	–	–	–	–	–	–	–	–	1990 nM	–
LGFLQRSSNTQTQK	–	–	–	–	–	–	–	–	18 nM	–	1340 nM	IC50 (HLA-DR DRB1*0701 (DR7); read-out: DRB1 *0701): 420 nM
LQQMLLGTLQVVCPG	–	395 nM	> 31600 nM	929 nM	29200 nM	–	168 nM	1010 nM	–	–	–	IC50 (HLA-DR DRB1*0401 (DR4); DRB1 *0401): 1500 nM; IC50 (HLA-DR DRB1*0901 (DR9); DRB1 *0901): 1690 nM
LRTIQQLLMGTVNIV	265 nM	6.4 nM	–	513 nM	32100 nM	23200 nM	13 nM	15 nM	–	–	–	IC50 (HLA-DR DRB1*0401 (DR4); DRB1 *0401): 108 nM
LYYLFNQHIKKELYH	–	327 nM	–	10200 nM	–	–	27 nM	1090 nM	–	–	–	IC50 (HLA-DR DRB1*0802 (DR8)): 1770 nM

— US20060079453A1, “Hla binding peptides and their uses” (priority 2002, published 2006)
